Target: human Nav1.7 (Homo sapiens, UniProt Q15858)
Experiment: FLIPR or FLIPR TETRA sodium dye assay with KCl and test article pre-incubation (CoroNa Green, veratridine + scorpion venom)
Format: cell-based
Conditions: recombinant human Nav1.7 in HEK293 cells

Sequence of human Nav1.7 (Q15858 1-1977 isoform Q15858-3): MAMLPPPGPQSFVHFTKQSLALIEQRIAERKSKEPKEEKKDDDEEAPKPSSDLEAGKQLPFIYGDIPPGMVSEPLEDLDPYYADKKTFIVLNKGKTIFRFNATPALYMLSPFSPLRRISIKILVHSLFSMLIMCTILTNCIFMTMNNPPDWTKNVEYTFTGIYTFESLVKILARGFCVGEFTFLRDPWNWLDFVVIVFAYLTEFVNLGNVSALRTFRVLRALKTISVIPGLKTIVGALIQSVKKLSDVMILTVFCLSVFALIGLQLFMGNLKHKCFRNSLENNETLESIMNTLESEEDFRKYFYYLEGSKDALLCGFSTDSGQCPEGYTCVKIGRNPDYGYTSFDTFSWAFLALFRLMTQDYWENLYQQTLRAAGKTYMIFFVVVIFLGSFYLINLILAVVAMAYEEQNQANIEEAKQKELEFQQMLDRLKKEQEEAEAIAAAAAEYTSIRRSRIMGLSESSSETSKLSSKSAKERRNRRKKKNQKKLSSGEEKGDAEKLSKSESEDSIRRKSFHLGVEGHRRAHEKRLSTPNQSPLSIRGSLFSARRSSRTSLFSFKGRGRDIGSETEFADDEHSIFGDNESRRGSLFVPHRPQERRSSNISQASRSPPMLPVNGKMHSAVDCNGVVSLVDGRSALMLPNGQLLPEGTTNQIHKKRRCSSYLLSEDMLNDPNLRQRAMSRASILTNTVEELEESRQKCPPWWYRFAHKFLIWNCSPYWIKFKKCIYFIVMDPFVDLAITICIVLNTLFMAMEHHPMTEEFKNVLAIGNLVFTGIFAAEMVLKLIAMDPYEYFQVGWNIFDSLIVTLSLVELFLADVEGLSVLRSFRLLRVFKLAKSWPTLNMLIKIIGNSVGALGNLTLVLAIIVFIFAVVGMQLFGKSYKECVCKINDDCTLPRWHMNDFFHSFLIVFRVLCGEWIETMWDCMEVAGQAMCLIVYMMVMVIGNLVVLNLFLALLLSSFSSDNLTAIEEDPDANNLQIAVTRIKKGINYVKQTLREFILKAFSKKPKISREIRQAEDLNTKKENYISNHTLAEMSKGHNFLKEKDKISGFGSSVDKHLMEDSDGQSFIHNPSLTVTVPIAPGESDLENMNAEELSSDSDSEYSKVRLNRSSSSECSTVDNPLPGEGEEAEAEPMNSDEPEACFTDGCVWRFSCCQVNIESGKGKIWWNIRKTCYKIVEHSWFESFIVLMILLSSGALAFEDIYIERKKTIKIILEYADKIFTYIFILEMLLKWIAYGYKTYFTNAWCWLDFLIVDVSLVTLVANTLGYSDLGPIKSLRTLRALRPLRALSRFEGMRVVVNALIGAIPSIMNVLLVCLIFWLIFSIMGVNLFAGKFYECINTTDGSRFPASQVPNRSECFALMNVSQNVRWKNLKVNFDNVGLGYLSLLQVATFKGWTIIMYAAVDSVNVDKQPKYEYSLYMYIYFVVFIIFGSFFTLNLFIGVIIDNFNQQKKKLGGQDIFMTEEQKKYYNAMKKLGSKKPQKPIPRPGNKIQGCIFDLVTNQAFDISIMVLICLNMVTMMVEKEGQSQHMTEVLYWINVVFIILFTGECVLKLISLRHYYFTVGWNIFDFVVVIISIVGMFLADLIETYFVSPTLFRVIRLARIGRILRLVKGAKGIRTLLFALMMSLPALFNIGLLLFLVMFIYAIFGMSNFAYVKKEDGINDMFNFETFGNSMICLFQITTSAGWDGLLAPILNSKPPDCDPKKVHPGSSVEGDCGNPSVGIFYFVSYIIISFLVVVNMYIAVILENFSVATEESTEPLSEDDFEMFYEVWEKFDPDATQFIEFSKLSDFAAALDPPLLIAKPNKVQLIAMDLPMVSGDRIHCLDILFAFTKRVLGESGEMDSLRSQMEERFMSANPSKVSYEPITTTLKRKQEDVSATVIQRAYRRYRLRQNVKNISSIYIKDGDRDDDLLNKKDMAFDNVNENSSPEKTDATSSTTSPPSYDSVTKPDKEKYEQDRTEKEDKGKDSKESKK

CNC(=O)CN1CCN(c2ccc(C(F)(F)F)cc2)c2ccc(-c3cccc([C@H](O)CO)n3)cc2C1 [Compound 105, (S)-2-(7-(6-(1,2-dihydroxyethyl)pyridin-2-yl)-1-(4-(trifluoromethyl)phenyl)-1,2,3,5-tetrahydro-4H-benzo[e][1,4]diazepin-4-yl)-N-methylacetamide]
IC50: 0.644 ± 0.025 µM

N#CCN1CCN(c2ccc(C(F)(F)F)cc2)c2ccc(-c3cccc([C@H](O)CO)n3)cc2C1 [Compound 106, (S)-2-(7-(6-(1,2-dihydroxyethyl)pyridin-2-yl)-1-(4-(trifluoromethyl)phenyl)-1,2,3,5-tetrahydro-4H-benzo[e][1,4]diazepin-4-yl)acetonitrile]
IC50: 0.581 ± 0.038 µM

OC[C@@H](O)c1cccc(-c2ccc3c(c2)CN(Cc2ncc[nH]2)CCN3c2ccc(C(F)(F)F)cc2)n1 [Compound 107, (S)-1-(6-(4-((1H-imidazol-2-yl)methyl)-1-(4-(trifluoromethyl)phenyl)-2,3,4,5-tetrahydro-1H-benzo[e][1,4]diazepin-7-yl)pyridin-2-yl)ethane-1,2-diol]
IC50: 0.669 ± 0.053 µM

NC(=O)c1cccc(-c2ccc3c(c2)CN(CC(O)CO)CCN3c2ccc(C(F)(F)F)cc2)n1 (stereo not shown) [Compound 109, 6-(4-(2,3-dihydroxypropyl)-1-(4-(trifluoromethyl)phenyl)-2,3,4,5-tetrahydro-1H-benzo[e][1,4]diazepin-7-yl)picolinamide]
IC50: 5.7 ± 0.663 µM

C[C@H](Nc1cc(C(N)=O)nc(-c2ccc3c(c2)OCCC3Cc2ccc(F)cc2)n1)C(N)=O (stereo partly drawn) [Compound 112, 6-(((S)-1-amino-1-oxopropan-2-yl)amino)-2-(4-(4-fluorobenzyl)chroman-7-yl)pyrimidine-4-carboxamide]
IC50: 5.32 ± 0.425 µM

NC(=O)c1cc([C@H](O)CO)cc(-c2ccc3c(c2)CN(CC2CC2)CCN3c2ccc(C(F)(F)F)cc2)n1 [Compound 122, (S)-6-(4-(cyclopropylmethyl)-1-(4-(trifluoromethyl)phenyl)-2,3,4,5-tetrahydro-1H-benzo[e][1,4]diazepin-7-yl)-4-(1,2-dihydroxyethyl)-picolinamide]
IC50: 7.21 ± 0.341 µM

NC(=O)c1cc(-c2ccc3c(c2)CN(CC2CC2)CCN3c2ccc(C(F)(F)F)cc2)cc([C@H](O)CO)n1 [Compound 123, (S)-4-(4-(cyclopropylmethyl)-1-(4-(trifluoromethyl)phenyl)-2,3,4,5-tetrahydro-1H-benzo[e][1,4]diazepin-7-yl)-6-(1,2-dihydroxyethyl)-picolinamide]
IC50: 9.61 ± 0.339 µM

From patent US10047075B2, “Pyridines and pyrimidines and use thereof” (Purdue Pharma L.P., priority 2014, dated 2018)
